Here are results for 1 compound from US11690824B2, “Antibacterial compounds” (THE GENERAL HOSPITAL CORPORATION, priority 2018, dated 2023).

Values after ≈ are worked out from the molar mass of the structure shown. Some results are limits rather than exact numbers.

The test system of data set [1] is E. aerogenes ATCC 13048. Put plainly: MIC assay. In kind it is cell-based, Enterobacter aerogenes. As to conditions: Klebsiella aerogenes, ATCC13048; E. aerogenes ATCC 13048; read-out: Minimum inhibitory concentration. The text has this:
(§1) Bacterial strains, growth conditions, and persister isolation. Methicillin-resistant S. aureus strains, MW2 BAA-1707, ATCC 33591, and JE2, methicillin-susceptible S. aureus strains, NCTC 8325, Newman, and ATCC 29213, vancomycin-resistant S. aureus strain, VRS1, Enterococcus faecium E007, vancomycin-resistant E. faecium strains, C68,^7 WB312, and WC196, Klebsiella pneumoniae WGLW2 (BEI Resources, Manassas, Va., USA), Acinetobacter baumannii ATCC 17978, Pseudomonas aeruginosa PA14, and Enterobacter aerogenes ATCC 13048 were used to test antimicrobial activity (Table 1). S. aureus strains were grown in tryptic soy broth (TSB) (BD, Franklin Lakes, N.J., USA), and E. faecium was grown in brain-heart infusion (BHI) broth (BD, Franklin Lakes, N.J., USA) at 37° C. K. pneumoniae, A. baumannii, P. aeruginosa, and E. aerogenes were grown in Luria Bertani (LB) broth (BD, Franklin Lakes, N.J., USA) at 37° C.
(§2) Minimal inhibitory concentration (MIC) assay. The MICS of antibiotics were determined by the standard micro-dilution method recommended by the Clinical and Laboratory Standards Institute. MIC assays were conducted in biological triplicate.

Data set [2] concerns S. aureus VRS1. As to the kind of experiment: MIC assay. Conditions: Staphylococcus aureus; S. aureus VRS1; read-out: Minimum inhibitory concentration. Format: cell-based.
Description: as §1, §2

In data set [3] the test system is S. aureus NCTC 8325. Put plainly: MIC assay. In kind it is cell-based. As to conditions: Staphylococcus aureus, NCTC8325; S. aureus NCTC 8325; read-out: Minimum inhibitory concentration.
Description: as §1, §2

Data set [4] deals with S. aureus Newman. Put plainly: MIC assay. As to conditions: Staphylococcus aureus; S. aureus Newman; read-out: Minimum inhibitory concentration. Format: cell-based.
Description: as §1, §2

Data set [5] has as its system S. aureus ATCC 29213. Put plainly: MIC assay. Format: cell-based. Conditions: Staphylococcus aureus, ATCC29213; S. aureus ATCC 29213; read-out: Minimum inhibitory concentration.
Description: as §1, §2

Data set [6] relates to S. aureus JE2. As to the kind of experiment: MIC assay. In kind it is cell-based. Conditions: Staphylococcus aureus; S. aureus JE2; read-out: Minimum inhibitory concentration.
Description: as §1, §2

Data set [7] deals with S. aureus ATCC 33591. As to the kind of experiment: MIC assay. In kind it is cell-based. As to conditions: Staphylococcus aureus, ATCC33591; S. aureus ATCC 33591; read-out: Minimum inhibitory concentration.
Description: as §1, §2

The subject of data set [8] is HKC-8. As to the kind of experiment: Cytotoxicity (WST-1). Format: cell-based. Conditions: 32 μg/ml. The method, then:
(§3) Cytotoxicity. […] HepG2 and HKC-8 cells were grown in Dulbecco's modified Eagle F-12 media mixed 1:1 with Ham's F-12 (DMEM/F-12, Life Technologies, Carlsbad, Calif., USA) supplemented with 10% FBS and 4 mM L-glutamine at 37° C. in 5% CO2. For cytotoxicity assays, HepG2 or HKC-8 was cultured in 96-well plates in 100 μL/well of the proper media to reach 70-80% confluence. The cells were then treated with a range of concentrations of nTZDpa or its analogs for 72 h. 10 μL of WST-1 (Roche, Mannheim, Germany) was added per well for the last 4 h of the 72 h period. WST-1 reduction was measured at absorbance 450 nm. The percent […] relative to that of the no-treatment control was calculated. The assay was carried out in biological triplicate.
A general note: Tetrazolium assays rely on reduction of a dye to a coloured formazan, in cell work by metabolically active cells.

Data set [9] deals with HepG2. As to the kind of experiment: Cytotoxicity (WST-1). As to conditions: 32 μg/ml. Format: cell-based. The protocol:
as §3

Data set [10] deals with MRSA MW2. As to the kind of experiment: Serial passage resistance development. Format: cell-based, S. aureus. As to conditions: 25 days, sub-MIC concentrations. The method, then:
Serial passage resistance development. […] Briefly, an extended range of concentrations of nTZDpa was generated by two-fold serial dilution with cation-adjusted Mueller Hinton (CaMH) broth (Difco, Detroit, USA) from three different starting concentrations (20, 24, and 32 μg/mL) covering 0.1875 to 32.0 μg/mL, which extended over three rows of the 96-well plate. Three sets of the extended gradient of nTZDpa were created in the 96-well plate to provide triplicates of the experiment. […] MRSA MW2 overnight cultures were adjusted to 1×10^6 CFU/mL in CaMH broth, and 50 μL of the diluted cultures were dispensed into the 96-well plates containing 50 μL of the extended gradient of antibiotics. After incubation for 24 h at 35° C., bacterial growth was determined by measuring optical density at 600 nm using a SpectraMax plate reader (Molecular Devices, Sunnyvale, Calif.), and growth was defined as an optical density reading of ≥0.1. Bacterial cells growing at the highest concentration of the antimicrobial (just below the MIC) were diluted 1:1000 in CaMH broth and then used to inoculate the next day's serial-passage plate. The remaining bacterial cells were stored at −80° C. in CaMH broth with 16% glycerol. This process was repeated for 25 days.

The test system of data set [11] is GUVs DOPC/DOPG (7:3). As to the kind of experiment: Giant unilamellar vesicles (GUVs), observation of compound effects. As to conditions: 4 μg/ml (1× MIC). The method, then:
Preparation of giant unilamellar vesicles (GUVs) and observation of compound effects on GUVs. GUVs were prepared by the electroformation method described previously. Dioleoyl-glycero-phosphocholine (DOPC), Dioleoyl-glycero-phosphoglycerol (DOPG) and Dioleoyl-glycero-phosphoethanolamine-N-lissamine rhodamine B sulfonyl (18:1 Liss Rhod PE) were purchased from Avanti Polar Lipids (Alabaster, Ala., USA). 4 mM of a lipid mixture consisting of DOPC/DOPG/18:1 Liss Rhod PE (7:3:0.005) was dissolved in chloroform. Indium tin oxide (ITO)-coated slides (50×75×1.1 mm, Delta Technologies, Loveland, Colo., USA) were coated with 40 μL of the lipid mixture and dried in a vacuum chamber for 2 h to remove chloroform. An electroformation chamber was made by placing a 2 mm thick Teflon spacer between the two lipid-coated ITO slides. After adding 2 mL of 100 mM sucrose into the electrofomation chamber, the chamber was sealed with binder clips, and then connected to an AC field function generator. The swelling of the lipid bilayers was facilitated by applying an electric AC-field (10 Hz). […] GUVs were detached from surfaces by reducing the AC-field from 10 Hz to 5 Hz for 20 min. The GUV suspension was diluted (1:30) in a 100 mM glucose solution. 49 μL of the diluted GUV suspension (˜100 vesicles) was added to a black, clear-bottom 384-well plate (Corning no. 3712). […]

For the compound `O=C(O)c1c(Sc2ccccc2)c2cc(Cl)ccc2n1Cc1ccc(Cl)cc1` [nTZDpa], the MIC is > 64 µg/mL in [1]; 4 µg/mL (≈ 9.34 µM) in data set [2]; 4 µg/mL (≈ 9.34 µM) in [3]; 4 µg/mL (≈ 9.34 µM) in data set [4]; 4 µg/mL (≈ 9.34 µM) in data set [5]; 4 µg/mL (≈ 9.34 µM) in data set [6]. In addition, the MIC in [7] worked out at 4 µg/mL (≈ 9.34 µM). For the same compound, the “cell death of HKC-8” value in data set [8] is ~16%. Also, the “cell death of HepG2” value in data set [9] is on record as ~30%. For the same compound, the “increase of MIC over wild-type after serial passage” value in data set [10] is given as “no increase in the nTZDpa MIC was observed”. Besides, the “time to formation of lipid aggregates on the surface of GUVs” value in [11] is given as 10 s. Also, in data set [11], the “time to rupture of GUVs” value was 60 s.
